Data on 54 compounds can be found in ChEMBL document CHEMBL1133257, “Quinolones as gonadotropin releasing hormone (GnRH) antagonists: simultaneous optimization of the C(3)-aryl and C(6)-substituents” (Bioorg Med Chem Lett, 2000).

Experiment [1] concerns the target T1, Gonadotropin-releasing hormone receptor (Rattus norvegicus, UniProt P30969).
T1 sequence (P30969 whole entry): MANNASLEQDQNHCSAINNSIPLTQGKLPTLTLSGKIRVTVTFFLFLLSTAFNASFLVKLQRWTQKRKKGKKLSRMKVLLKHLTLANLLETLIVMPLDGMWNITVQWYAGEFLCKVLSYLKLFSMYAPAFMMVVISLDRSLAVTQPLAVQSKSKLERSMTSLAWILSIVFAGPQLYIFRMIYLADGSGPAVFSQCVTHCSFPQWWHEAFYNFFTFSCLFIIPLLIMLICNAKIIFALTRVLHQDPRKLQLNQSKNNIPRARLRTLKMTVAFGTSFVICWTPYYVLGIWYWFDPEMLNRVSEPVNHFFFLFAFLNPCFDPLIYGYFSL
Description: Binding affinity to Gonadotropin-releasing hormone receptor (GnRHr) in rat pituitary cells.

Experiment [2] has as its target T1, Gonadotropin-releasing hormone receptor. Description: Compound was evaluated for its antagonism in rat primary pituitary cell assay (rLH). In kind it is functional, cell-based, Pituitary gland cell.
The target of experiment [3] is T2, Gonadotropin-releasing hormone receptor (Homo sapiens, UniProt P30968).
T2 sequence (P30968 whole entry): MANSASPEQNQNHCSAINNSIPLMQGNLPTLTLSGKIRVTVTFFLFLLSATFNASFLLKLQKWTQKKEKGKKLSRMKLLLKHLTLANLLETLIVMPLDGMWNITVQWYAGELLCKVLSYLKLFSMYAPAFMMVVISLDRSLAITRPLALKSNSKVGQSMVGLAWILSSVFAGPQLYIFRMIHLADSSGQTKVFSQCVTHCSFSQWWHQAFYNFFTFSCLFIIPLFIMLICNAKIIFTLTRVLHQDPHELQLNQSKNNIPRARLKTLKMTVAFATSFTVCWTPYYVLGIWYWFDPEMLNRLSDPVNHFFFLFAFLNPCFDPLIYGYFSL
Description: Inhibition of recombinant human Gonadotropin-releasing hormone receptor.

Experiment [4] deals with T1, Gonadotropin-releasing hormone receptor. Nature of the experiment: Compound was evaluated for its inhibitory activity against rat pituitary Gonadotropin-releasing hormone receptor.
The nature of experiment [5]: Compound was evaluated for its antagonism in CHO cells expressing the human receptor (hPI). Format: functional, cell-based.

Values joined by “and” are separate entries in the source; they are usually repeats but may differ in a detail not shown here. Equal entries are not always repeated.

One may read the IC50 as the concentration that gives 50% inhibition. On to `O=c1[nH]c2cc(Cl)c([N+](=O)[O-])cc2c(OCCC2CCCCN2)c1-c1ccccc1Cl` (stereo not drawn), for which the IC50 in experiment [1] was 360 nM.
Take `Cc1cc(CC(N)=O)cc(-c2c(O)nc3cc(Cl)c([N+](=O)[O-])cc3c2OCCC2CCCCN2)c1` (stereo not drawn): in experiment [1], the IC50 worked out at 71 nM.
In the case of `Cc1cc(C)cc(-c2c(O)nc3cc(Cl)c(NC(=O)Nc4ccccn4)cc3c2OCCC2CCCCN2)c1` (stereo not drawn), the figures for the concentration for half-maximal inhibition (IC50) in experiment [2] and in experiment [1] were 463 nM and 15 nM, respectively.
Turning to `Cc1cc(C)cc(-c2c(O)nc3cc(Cl)c(NC(=O)Nc4ncccn4)cc3c2OCCC2CCCCN2)c1` (stereo not drawn), the IC50 in experiment [1] was determined as 6 nM.
Regarding `Cc1cc(C)cc(-c2c(O)nc3cc(Cl)c(NC(=O)c4cnccn4)cc3c2OCCC2CCCCN2)c1` (stereo not drawn), the IC50 is 10 nM in experiment [3], 1920 nM in experiment [2] and 1.8 nM in experiment [1].
In experiment [1], `O=[N+]([O-])c1cc2c(OCCC3CCCCN3)c(-c3ccc(Cl)c(Cl)c3)c(O)nc2cc1Cl` (stereo not drawn) yielded an IC50 of 29 nM.
For `COc1ccc(-c2c(O)nc3cc(Cl)c([N+](=O)[O-])cc3c2OCCC2CCCCN2)cc1OC` (stereo not drawn), the IC50 in experiment [1] came out at 600 nM.
In experiment [1], `O=c1[nH]c2cc(Cl)c([N+](=O)[O-])cc2c(OCCC2CCCCN2)c1-c1cc(C(F)(F)F)cc(C(F)(F)F)c1` (stereo not drawn) yielded an IC50 of 71 nM.
As to `Cc1cc(C)cc(-c2c(O)nc3cc(Cl)c(NC(=O)NC4CC4)cc3c2OCCC2CCCCN2)c1` (stereo not drawn), the IC50 was 1.1 nM in experiment [4]; 375 nM and 682 nM in experiment [2]; 12 nM and 5 nM in experiment [5]; 0.8 nM in experiment [1].
In experiment [1], `Cc1ccc(-c2c(OCCC3CCCCN3)c3cc([N+](=O)[O-])c(Cl)cc3[nH]c2=O)cc1C` (stereo not drawn) came in with a 50% inhibitory concentration (IC50) of 18 nM.
Turning to `Cc1cc(C)cc(-c2c(OCCC3CCCCN3)c3cc(NC(=O)Nc4ccccc4)c(Cl)cc3[nH]c2=O)c1` (stereo not drawn), the values for the IC50 in experiment [2] and in experiment [1] were 3300 nM and 10 nM, respectively.
For `Cc1cc(C)cc(-c2c(OCC[C@@H]3CCCCN3)c3cc(NC(=O)NC4CC4)c(Cl)cc3[nH]c2=O)c1`, in experiment [3], the IC50 came to 2.3 nM.
In turn, `O=c1[nH]c2cc(Cl)c([N+](=O)[O-])cc2c(OCCC2CCCCN2)c1-c1ccsc1` (stereo not drawn) registered an IC50 in experiment [1] of 900 nM.
Consider `Cc1cc(CC#N)cc(-c2c(O)nc3cc(Cl)c([N+](=O)[O-])cc3c2OCCC2CCCCN2)c1` (stereo not drawn), for which the IC50 in experiment [1] is 18 nM.
As for `O=[N+]([O-])c1cc2c(OCCC3CCCCN3)c(-c3cccc(F)c3)c(O)nc2cc1Cl` (stereo not drawn), in experiment [1], the IC50 stood at 53 nM.
In experiment [1], `O=c1[nH]c2cc(Cl)c([N+](=O)[O-])cc2c(OCCC2CCCCN2)c1-c1cc(Cl)cc(Cl)c1` (stereo not drawn) yielded an IC50 of 24 nM.
With `CC(C)(C)c1ccc(-c2c(OCCC3CCCCN3)c3cc([N+](=O)[O-])c(Cl)cc3[nH]c2=O)cc1` (stereo not drawn), the 50% inhibitory concentration (IC50) in experiment [1] was found to be 200 nM.
The compound `O=c1[nH]c2cc(Cl)c([N+](=O)[O-])cc2c(OCCC2CCCCN2)c1-c1ccc(Cl)s1` (stereo not drawn) returned an IC50 in experiment [1] of 23 nM.
On to `Cc1cc(C)cc(-c2c(OCC[C@@H]3CCCCN3)c3cc(NC(=O)Nc4cnccn4)c(Cl)cc3[nH]c2=O)c1`, for which, in experiment [3], the IC50 came to 1.1 nM.
Take `Cc1cc(C)cc(-c2c(O)nc3cc(Cl)c(NC(=O)Nc4cncnc4)cc3c2OCC[C@@H]2CCCCN2)c1`: the IC50 in experiment [3] came out at 57 nM; in experiment [5] it was 897 nM.
In the case of `O=[N+]([O-])c1cccc(-c2c(O)nc3cc(Cl)c([N+](=O)[O-])cc3c2OCCC2CCCCN2)c1` (stereo not drawn), the IC50 in experiment [1] came out at 100 nM.
In the case of `Cc1cc(C)cc(-c2c(O)nc3cc(Cl)c(CC(=O)Nc4ccncn4)cc3c2OCCC2CCCCN2)c1` (stereo not drawn), the figures for the IC50 in experiment [2], in experiment [5] and in experiment [1] were 2500 nM, 227 nM and 7.9 nM, respectively.
Take `Cc1cccc(-c2c(O)nc3cc(Cl)c([N+](=O)[O-])cc3c2OCCC2CCCCN2)c1` (stereo not drawn): the IC50 in experiment [1] was 27 nM.
The same measure, in the same setting: the result for `O=C(Nc1cc2c(OCCC3CCCCN3)c(-c3ccc4ccccc4c3)c(=O)[nH]c2cc1Cl)NC1CC1` (stereo not drawn) reads 68 nM.
Regarding `O=C(Nc1ccncn1)c1cc2c(OCC[C@@H]3CCCCN3)c(-c3ccc(Cl)c(Cl)c3)c(O)nc2cc1Cl`, the values for the IC50 in experiment [3] and in experiment [5] were 1 nM and 7.7 nM, respectively.
`O=[N+]([O-])c1cc2c(OCCC3CCCCN3)c(-c3cccc(Br)c3)c(O)nc2cc1Cl` (stereo not drawn) came in with an IC50 in experiment [1] of 40 nM.
The compound `O=C(Nc1cc2c(OCCC3CCCCN3)c(-c3ccc(Cl)c(Cl)c3)c(O)nc2cc1Cl)NC1CC1` (stereo not drawn) gave an IC50 in experiment [1] of 18 nM.
Consider `COc1ccc(-c2c(OCCC3CCCCN3)c3cc([N+](=O)[O-])c(Cl)cc3[nH]c2=O)cc1C` (stereo not drawn), for which, in experiment [1], the 50% inhibitory concentration (IC50) worked out at 40 nM.
With `O=C(Nc1ccncn1)c1cc2c(OCC[C@@H]3CCCCN3)c(-c3cc(Cl)cc(Cl)c3)c(O)nc2cc1Cl`, the half-inhibitory concentration (IC50) in experiment [3] came to 1.1 nM; in experiment [5], 8.5 nM.
For the compound `O=c1[nH]c2cc(Cl)c([N+](=O)[O-])cc2c(OCCC2CCCCN2)c1-c1cccc(Cl)c1` (stereo not drawn), the half-maximal inhibitory concentration (IC50) in experiment [1] came to 40 nM.
In the case of `Cc1cc(C)cc(-c2c(O)nc3cc(Cl)c(NC(=O)c4cnccn4)cc3c2OCC[C@@H]2CCCCN2)c1`, the IC50 in experiment [3] was found to be 2 nM; in experiment [5], 23 nM.
As to `Cc1ccc(-c2c(O)nc3cc(Cl)c([N+](=O)[O-])cc3c2OCCC2CCCCN2)c(C)c1` (stereo not drawn), the IC50 in experiment [1] stood at 400 nM.
Consider `O=c1[nH]c2cc(Cl)c([N+](=O)[O-])cc2c(OCCC2CCCCN2)c1-c1ccccc1` (stereo not drawn), for which the IC50 in experiment [1] came out at 410 nM.
For the compound `O=C(Nc1cc2c(OCCC3CCCCN3)c(-c3cccc(Br)c3)c(=O)[nH]c2cc1Cl)NC1CC1` (stereo not drawn), the IC50 in experiment [1] is 6 nM.
On to `CCN(CC)Cc1cc(C)cc(-c2c(OCCC3CCCCN3)c3cc([N+](=O)[O-])c(Cl)cc3[nH]c2=O)c1` (stereo not drawn), for which the IC50 in experiment [1] was 270 nM.
`O=c1[nH]c2cc(Cl)c([N+](=O)[O-])cc2c(OCCC2CCCCN2)c1-c1ccc2ccccc2c1` (stereo not drawn) came in with an IC50 in experiment [1] of 53 nM.
In the case of `Cc1cc(C)cc(-c2c(OCC[C@@H]3CCCCN3)c3cc(NC(=O)Nc4ccncn4)c(Cl)cc3[nH]c2=O)c1`, the IC50 in experiment [3] came to 1.8 nM.
For `Cc1cc(-c2c(O)nc3cc(Cl)c(C(=O)Nc4ccncn4)cc3c2OCC[C@@H]2CCCCN2)ccc1I`, the IC50 in experiment [3] was 0.5 nM; in experiment [5] it was 7.1 nM.
Turning to `Cc1cc(-c2c(O)nc3cc(Cl)c(C(=O)Nc4ccncn4)cc3c2OCC[C@@H]2CCCCN2)cc(C)c1C`, the values for the IC50 in experiment [3] and in experiment [5] were 0.3 nM and 2.2 nM, respectively.
As for `O=C(Nc1ccncn1)c1cc2c(OCC[C@@H]3CCCCN3)c(-c3ccc(Cl)s3)c(O)nc2cc1Cl`, the IC50 in experiment [3] came out at 3.9 nM; in experiment [5] it was 53 nM.
For the compound `Cc1cc(C)cc(-c2c(O)nc3cc(Cl)c(NC(=O)Nc4cccnc4)cc3c2OCCC2CCCCN2)c1` (stereo not drawn), the IC50 in experiment [2] is 1300 nM; in experiment [1], 20 nM.
For the compound `O=C(Nc1ccncn1)c1cc2c(OCC[C@@H]3CCCCN3)c(-c3ccc4c(c3)CCC4)c(O)nc2cc1Cl`, the IC50 was 0.7 nM in experiment [3] and 16 nM in experiment [5].
In the case of `O=c1[nH]c2cc(Cl)c([N+](=O)[O-])cc2c(OCCC2CCCCN2)c1-c1ccc(Cl)cc1` (stereo not drawn), in experiment [1], the IC50 turned out to be 160 nM.
Same read-out and setting: next, `O=c1[nH]c2cc(Cl)c([N+](=O)[O-])cc2c(OCCC2CCCCN2)c1-c1cccs1` (stereo not drawn): 220 nM; `O=[N+]([O-])c1cc2c(OCCC3CCCCN3)c(-c3ccc(-c4ccccc4)c(Cl)c3)c(O)nc2cc1Cl` (stereo not drawn): 900 nM.
The same measure, in the same setting: next, `CC(=O)OCc1cc(C)cc(-c2c(O)nc3cc(Cl)c([N+](=O)[O-])cc3c2OCCC2CCCCN2)c1` (stereo not drawn): 45 nM.
Take `Cc1ccc(-c2c(O)nc3cc(Cl)c(C(=O)Nc4ccncn4)cc3c2OCC[C@@H]2CCCCN2)cc1C`: the IC50 was 0.7 nM in experiment [3] and 6.5 nM in experiment [5].
With `Cc1cc(-c2c(O)nc3cc(Cl)c([N+](=O)[O-])cc3c2OCCC2CCCCN2)cc(C(C)O)c1` (stereo not drawn), the IC50 in experiment [1] turned out to be 63 nM.
With `Cc1cc(C)cc(-c2c(O)nc3cc(Cl)c(NC(=O)c4cncnc4)cc3c2OCC[C@@H]2CCCCN2)c1`, the IC50 in experiment [5] worked out at 225 nM; in experiment [1], 25 nM.
In experiment [1], `Cc1ccc(-c2c(OCCC3CCCCN3)c3cc(NC(=O)NC4CC4)c(Cl)cc3[nH]c2=O)cc1C` (stereo not drawn) gave an IC50 of 6 nM.
In experiment [1], `Cc1cccc(-c2c(OCCC3CCCCN3)c3cc(NC(=O)NC4CC4)c(Cl)cc3[nH]c2=O)c1` (stereo not drawn) showed an IC50 of 23 nM.
The same measure, in the same setting: the result for `Cc1cc(C)cc(-c2c(O)nc3cc(Cl)c(NC(=O)Nc4ccncc4)cc3c2OCCC2CCCCN2)c1` (stereo not drawn) reads 40 nM.
As for `Cc1cc(C)cc(-c2c(O)nc3cc(Cl)c(NC(=O)Nc4cnccn4)cc3c2OCCC2CCCCN2)c1` (stereo not drawn), the IC50 worked out at 56 nM in experiment [2], 9 nM in experiment [5] and 0.3 nM in experiment [1].
For the compound `Cc1cc(C)cc(-c2c(OCCC3CCCCN3)c3cc(NC(=O)Nc4ccncn4)c(Cl)cc3[nH]c2=O)c1` (stereo not drawn), the IC50 in experiment [4] is 0.4 nM; in experiment [2] it was 235 nM and 52 nM; in experiment [1], 0.6 nM.
